The compounds below were run against T1, Broad substrate specificity ATP-binding cassette transporter ABCG2 (Homo sapiens, UniProt Q9UNQ0) (assay: Screening Assay for ABCG2 Inhibitors). Settings: pH 7.4; 37 °C.
T1 sequence (Q9UNQ0 whole entry): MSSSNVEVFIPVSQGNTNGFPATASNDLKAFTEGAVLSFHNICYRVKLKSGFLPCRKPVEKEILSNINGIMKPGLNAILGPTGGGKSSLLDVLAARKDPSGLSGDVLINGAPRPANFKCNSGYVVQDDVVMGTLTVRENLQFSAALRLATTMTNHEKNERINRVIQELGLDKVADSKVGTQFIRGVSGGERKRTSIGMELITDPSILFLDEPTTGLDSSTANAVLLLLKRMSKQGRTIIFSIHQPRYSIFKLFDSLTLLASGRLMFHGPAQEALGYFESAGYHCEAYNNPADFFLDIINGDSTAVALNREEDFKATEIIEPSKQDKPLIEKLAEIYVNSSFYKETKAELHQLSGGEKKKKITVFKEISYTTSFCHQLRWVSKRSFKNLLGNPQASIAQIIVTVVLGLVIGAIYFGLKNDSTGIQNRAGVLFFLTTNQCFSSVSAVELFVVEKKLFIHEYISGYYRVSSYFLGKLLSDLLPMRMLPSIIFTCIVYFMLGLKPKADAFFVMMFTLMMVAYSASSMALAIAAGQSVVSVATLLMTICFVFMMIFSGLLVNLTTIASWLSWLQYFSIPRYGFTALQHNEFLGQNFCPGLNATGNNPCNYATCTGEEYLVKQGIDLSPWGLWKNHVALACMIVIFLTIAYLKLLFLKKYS
Description: IC50 and maximal activities for inhibition of PhA accumulation were determined from dose-response curves. The accumulation of PhA, a fluorescent ABCG2 substrate, formed the basis of the assay for inhibitors of ABCG2 activity. NCI-H460/MX20 cells were transferred to black-walled, clear-bottomed 384-well polylysine-coated assay plates (Corning) and allowed to attach for several hours. PhA was added, immediately followed by compounds or vehicle (DMSO/PBS) control and incubated for an additional 18 h. After removal of medium and washing with PBS containing Ca2+ and Mg2+, fluorescence intensity was read on a Tecan Safire fluorescence plate reader in bottom read mode (395 nm excitation, 670 nm emission). Each plate had control wells containing Fumitremorgin C (FTC). Data were normalized to FTC and reported as the percentage of FTC fluorescence. Apparent IC50 values were calculated from dose-response data using SigmaPlot (SPSS, Inc., Chicago) 4-parameter logistic nonlinear regression analysis.

| Compound | IC50 [µM] |
| --- | --- |
| CO/C(=C\c1ccc(O)cc1)C(=O)N/C=C/c1cc(Br)c(O)c(Br)c1 [US8470888, Botryllamide G] | 6.9 |
| COc1ccc2c3c([nH]c2c1)[C@H](C=C(C)C)N1C(=O)[C@@H]2CCCN2C(=O)[C@@H]1C3 [Fumitremorgin C] | 0.79 |
| CO/C(=C/c1ccc(O)cc1)C(=O)N/C=C/c1ccc(OC)cc1 [Botryllamide I, 9] | 41.4 |
| CO/C(=C\c1ccc(O)cc1)C(=O)N/C=C/c1ccc(O)cc1 [US8470888, Botryllamide F] | 16.7 |
| CO/C(=C\c1ccc(O)cc1)C(=O)N/C=C/c1cc(Br)c(OC)c(Br)c1 [US8470888, Botryllamide A] | 33.4 |
| CO/C(=C/c1ccc(O)cc1)C(=O)N/C=C/c1ccc(OC)c(Br)c1 [Botryllamide D, 4] | 16.4 |
| CO/C(=C\c1ccc(O)cc1)C(=O)N/C=C/c1ccc(OC)cc1 [US8470888, Botryllamide I] | 23.3 |
| CO/C(=C/c1ccc(O)cc1)C(=O)N/C=C/c1cc(Br)c(OC)c(Br)c1 [Botryllamide B, 2] | 11.2 |
